Laboratory results published in patent US7491794B2, “Macrocyclic compounds as inhibitors of viral replication” (Intermune, Inc., priority 2003, dated 2009).
Where two headings read alike, the source gives them in different places.

Tests used:
NS3-NS4A protease = target: T1, NS3-NS4A protease (Hepatitis C virus genotype 1a, UniProt P27958); assay: NS3-NS4A protease assay (NS3 inhibition assay, RETS1 substrate), Section B; type: biochemical
T1 construct: Recombinant E. coli or Baculovirus full-length NS3 was diluted to 3.33 μM with assay buffer; made in house; host or cells: E. coli or baculovirus (BV) system
T1 sequence (P27958 1027-1657): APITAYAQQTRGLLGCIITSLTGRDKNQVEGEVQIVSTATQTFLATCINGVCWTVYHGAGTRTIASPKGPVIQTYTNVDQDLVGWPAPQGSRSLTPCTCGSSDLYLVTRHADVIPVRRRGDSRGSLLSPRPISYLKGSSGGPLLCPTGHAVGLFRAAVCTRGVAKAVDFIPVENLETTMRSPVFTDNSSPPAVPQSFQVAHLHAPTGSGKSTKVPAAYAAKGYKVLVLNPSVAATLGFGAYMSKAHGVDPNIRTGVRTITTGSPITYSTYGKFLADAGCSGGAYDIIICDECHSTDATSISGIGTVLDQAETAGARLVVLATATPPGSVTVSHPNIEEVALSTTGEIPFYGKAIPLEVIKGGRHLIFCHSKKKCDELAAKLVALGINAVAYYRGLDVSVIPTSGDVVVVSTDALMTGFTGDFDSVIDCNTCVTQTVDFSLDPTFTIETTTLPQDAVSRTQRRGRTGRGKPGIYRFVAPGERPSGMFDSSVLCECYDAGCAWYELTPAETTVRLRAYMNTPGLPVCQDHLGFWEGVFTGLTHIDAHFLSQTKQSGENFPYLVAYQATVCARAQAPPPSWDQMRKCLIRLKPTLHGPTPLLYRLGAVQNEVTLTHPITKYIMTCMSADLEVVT
Summary of the method: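 Full-length NS3 (E. coli or baculovirus) precomplexed with excess NS4A-2 peptide, run at 2 nM (E. coli) or 3 nM (BV) NS3; compounds pre-incubated 10 min at room temperature before RETS1 substrate. Fluorescence (ex 335/em 495 nm) read kinetically 30 min; IC50 from four-parameter fit, converted to Ki via Ki=IC50/(1+[S]/Km).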

[1] = tested on: HCV sub-genomic replicon, GS4.3; assay: Quantitation by ELISA of NPTII in the HCV sub-genomic replicon, GS4.3, Section B; type: cell-based; settings: Hepatitis C virus, read-out: Replicon EC50
Summary of the method: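 GS4.3 cells (HuH-7 carrying HCV 1377/NS3-3′ replicon) were treated 72 h at 37 °C with inhibitors in 3-fold dilutions, 1% DMSO, no G418. Lysate NPTII was measured by ELISA (TMB, 450 nm). Signal as % of DMSO control; EC50 from 4-parameter fit.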

SMILES | IC50 (NS3-NS4A protease; read-out: NS3-NS4A IC50) | EC50 ([1]; GS4.3 cells, 72 h incubation) | IC50 (NS3-NS4A protease) | EC50 ([1]; 72 h)
CC(C)(OC(=O)N[C@H]1CCCCC/C=C\[C@@H]2C[C@@]2(C(=O)NS(=O)(=O)C2CC2)NC(=O)[C@@H]2C[C@@H](OC(=O)N3CCc4ccccc4C3)CN2C1=O)C(F)(F)F [AR00320582, (1S,4R,6S,14S,18R)-3,4-Dihydro-1H-isoquinoline-2-carboxylic acid 4-cyclopropanesulfonylaminocarbonyl-2,15-dioxo-14-(2,2,2-trifluoro-1,1-dimethyl-ethoxycarbonylamino)-3,16-diaza-tricyclo[14.3.0.0^4,6]nonadec-7-en-18-yl ester] | < 0.1 µM | < 0.1 µM | – | –
CC(C)(C)OC(=O)N[C@H]1CCCCC/C=C\[C@@H]2C[C@@]2(C(=O)NS(=O)(=O)C2CC2)NC(=O)[C@@H]2C[C@@H](OC(=O)N3CCc4cc(C(F)(F)F)ccc4C3)CN2C1=O [AR00301747, (1S,4R,6S,14S,18R)-6-Trifluoromethyl-3,4-dihydro-1H-isoquinoline-2-carboxylic acid 14-tert-butoxycarbonylamino-4-cyclopropanesulfonylaminocarbonyl-2,15-dioxo-3,16-diaza-tricyclo[14.3.0.0^4,6]nonadec-7-en-18-yl ester] | < 0.1 µM | < 0.1 µM | – | –
CC(C)(C)OC(=O)N[C@H]1CCCCC/C=C\[C@@H]2C[C@@]2(C(=O)NS(=O)(=O)C2CC2)NC(=O)[C@@H]2C[C@@H](OC(=O)N3Cc4ccc(OCCn5ccnc5)cc4C3)CN2C1=O [AR00345096, (1S,4R,6S,14S,18R)-5-(2-Imidazol-1-yl-ethoxy)-1,3-dihydro-isoindole-2-carboxylic acid 14-tert-butoxycarbonylamino-4-cyclopropanesulfonylaminocarbonyl-2,15-dioxo-3,16-diaza-tricyclo[14.3.0.0^4,6]nonadec-7-en-18-yl ester] | < 0.1 µM | < 0.1 µM | – | –
CC(C)(C)OC(=O)N[C@H]1CCCCC/C=C\[C@@H]2C[C@@]2(C(=O)O)NC(=O)[C@@H]2C[C@@H](OC(=O)N3Cc4cccc(F)c4C3)CN2C1=O [AR00365369, (1S,4R,6S,14S,18R)-14-tert-Butoxycarbonylamino-18-(4-fluoro-1,3-dihydro-isoindole-2-carbonyloxy)-2,15-dioxo-3,16-diaza-tricyclo[14.3.0.0^4,6]nonadec-7-ene-4-carboxylic acid] | < 0.1 µM | < 1 µM | – | –
O=C(N[C@H]1CCCCC/C=C\[C@@H]2C[C@@]2(C(=O)NS(=O)(=O)C2CC2)NC(=O)[C@@H]2C[C@@H](OC(=O)N3CCc4ccccc4C3)CN2C1=O)OC1CCOCC1 [AR00320082, (1S,4R,6S,14S,18R)-3,4-Dihydro-1H-isoquinoline-2-carboxylic acid 4-cyclopropanesulfonylaminocarbonyl-2,15-dioxo-14-(tetrahydro-pyran-4-yloxycarbonylamino)-3,16-diaza-tricyclo[14.3.0.0^4,6]nonadec-7-en-18-yl ester] | < 0.1 µM | < 0.1 µM | – | –
CC(C)(C)OC(=O)N[C@H]1CCCCC/C=C\[C@@H]2C[C@@]2(C(=O)NS(=O)(=O)C2CC2)NC(=O)[C@@H]2C[C@@H](OC(=O)N3CCc4ccc(Cl)cc4C3)CN2C1=O [AR00301746, (1S,4R,6S,14S,18R)-7-Chloro-3,4-dihydro-1H-isoquinoline-2-carboxylic acid 14-tert-butoxycarbonylamino-4-cyclopropanesulfonylaminocarbonyl-2,15-dioxo-3,16-diaza-tricyclo[14.3.0.0^4,6]nonadec-7-en-18-yl ester] | < 0.1 µM | < 0.1 µM | – | –
CC(C)[C@@H](NC(=O)c1cnccn1)C(=O)N[C@H]1CCCCC/C=C\[C@@H]2C[C@@]2(C(=O)O)NC(=O)[C@@H]2C[C@@H](OC(=O)N3CCc4ccccc4C3)CN2C1=O [AR00301338, (1S,4R,6S,14S,18R)-18-(3,4-Dihydro-1H-isoquinoline-2-carbonyloxy)-14-{3-methyl-2-[(pyrazine-2-carbonyl)-amino]-butyrylamino}-2,15-dioxo-3,16-diaza-tricyclo[14.3.0.0^4,6]nonadec-7-ene-4-carboxylic acid] | – | – | < 0.1 µM | < 10 µM
O=C(NC1CCCC1)N[C@H]1CCCCC/C=C\[C@@H]2C[C@@]2(C(=O)O)NC(=O)[C@@H]2C[C@@H](OC(=O)N3CCc4ccccc4C3)CN2C1=O [AR00294378, (1S,4R,6S,14S,18R)-14-(3-Cyclopentyl-ureido)-18-(3,4-dihydro-1H-isoquinoline-2-carbonyloxy)-2,15-dioxo-3,16-diaza-tricyclo[14.3.0.0^4,6]nonadec-7-ene-4-carboxylic acid] | < 1 µM | < 10 µM | – | –
CC(C)(C)OC(=O)N[C@H]1CCCCC/C=C\[C@@H]2C[C@@]2(C(=O)O)NC(=O)[C@@H]2C[C@@H](OC(=O)N3Cc4ccc(Cl)cc4C3)CN2C1=O [AR00315998, (1S,4R,6S,14S,18R)-14-tert-Butoxycarbonylamino-18-(5-chloro-1,3-dihydro-isoindole-2-carbonyloxy)-2,15-dioxo-3,16-diaza-tricyclo[14.3.0.0^4,6]nonadec-7-ene-4-carboxylic acid] | < 1 µM | < 10 µM | – | –
CC(C)(C)OC(=O)N[C@H]1CCCCC/C=C\[C@@H]2C[C@@]2(C(=O)NS(C)(=O)=O)NC(=O)[C@@H]2C[C@@H](OC(=O)N3CCc4ccccc4C3)CN2C1=O [AR00254906, (1S,4R,6S,14S,18R)-3,4-Dihydro-1H-isoquinoline-2-carboxylic acid 14-tert-butoxycarbonylamino-4-methanesulfonylaminocarbonyl-2,15-dioxo-3,16-diaza-tricyclo[14.3.0.0^4,6]nonadec-7-en-18-yl ester] | < 0.1 µM | < 1 µM | – | –
O=C(N[C@H](C(=O)N[C@H]1CCCCC/C=C\[C@@H]2C[C@@]2(C(=O)NS(=O)(=O)C2CC2)NC(=O)[C@@H]2C[C@@H](OC(=O)N3Cc4cccc(F)c4C3)CN2C1=O)C1CCCCC1)c1cnccn1 [AR00340303, (1S,4R,6S,14S,18R)-4-Fluoro-1,3-dihydro-isoindole-2-carboxylic acid 14-{2-cyclohexyl-2-[(pyrazine-2-carbonyl)-amino]-acetylamino}-4-cyclopropanesulfonylaminocarbonyl-2,15-dioxo-3,16-diaza-tricyclo[14.3.0.0^4,6]nonadec-7-en-18-yl ester] | – | < 1 µM | < 0.1 µM | –
O=C(N[C@H]1CCCCC/C=C\[C@@H]2C[C@@]2(C(=O)O)NC(=O)[C@@H]2C[C@@H](OC(=O)N3CCc4ccccc4C3)CN2C1=O)OC1CCOCC1 [AR00320002, (1S,4R,6S,14S,18R)-18-(3,4-Dihydro-1H-isoquinoline-2-carbonyloxy)-2,15-dioxo-14-(tetrahydro-pyran-4-yloxycarbonylamino)-3,16-diaza-tricyclo[14.3.0.0^4,6]nonadec-7-ene-4-carboxylic acid] | < 1 µM | < 10 µM | – | –
O=C(N[C@H]1CCCCC/C=C\[C@@H]2C[C@@]2(C(=O)NS(=O)(=O)C2CC2)NC(=O)[C@@H]2C[C@@H](OC(=O)N3Cc4ccccc4C4(CCC4)C3)CN2C1=O)O[C@@H]1CCOC1 [AR00314635, (1S,4R,6S,14S,18R)-4,4-Spirocyclobutyl-3,4-dihydro-1H-isoquinoline-2-carboxylic acid 4-cyclopropanesulfonylaminocarbonyl-2,15-dioxo-14-(tetrahydro-furan-3-yloxycarbonylamino)-3,16-diaza-tricyclo[14.3.0.0^4,6]nonadec-7-en-18-yl ester] | < 0.1 µM | < 0.1 µM | – | –
CC(C)(C)NC(=O)N[C@H]1CCCCC/C=C\[C@@H]2C[C@@]2(C(=O)NS(=O)(=O)C2CC2)NC(=O)[C@@H]2C[C@@H](OC(=O)N3Cc4cc(Cl)c(Cl)cc4C3)CN2C1=O [AR00320447, (1S,4R,6S,14S,18R)-5,6-Dichloro-1,3-dihydro-isoindole-2-carboxylic acid 14-(3-tert-butyl-ureido)-4-cyclopropanesulfonylaminocarbonyl-2,15-dioxo-3,16-diaza-tricyclo[14.3.0.0^4,6]nonadec-7-en-18-yl ester] | < 0.1 µM | < 1 µM | – | –
Cc1ccc(S(=O)(=O)NC(=O)[C@@]23C[C@H]2/C=C\CCCCC[C@H](NC(=O)OC(C)(C)C)C(=O)N2C[C@H](OC(=O)N4CCc5ccccc5C4)C[C@H]2C(=O)N3)cc1 [AR00320549, (1S,4R,6S,14S,18R)-3,4-Dihydro-1H-isoquinoline-2-carboxylic acid 14-tert-butoxycarbonylamino-2,15-dioxo-4-(toluene-4-sulfonylaminocarbonyl)-3,16-diaza-tricyclo[14.3.0.0^4,6]nonadec-7-en-18-yl ester] | < 0.1 µM | – | – | < 0.1 µM
CC(=O)Nc1nnc(S(=O)(=O)NC(=O)[C@@]23C[C@H]2/C=C\CCCCC[C@H](NC(=O)OC(C)(C)C)C(=O)N2C[C@H](OC(=O)N4Cc5ccccc5C4)C[C@H]2C(=O)N3)s1 [AR00334247, (1S,4R,6S,14S,18R)-1,3-Dihydro-isoindole-2-carboxylic acid 4-(5-acetylamino-[1,3,4]thiadiazole-2-sulfonylaminocarbonyl)-14-tert-butoxycarbonylamino-2,15-dioxo-3,16-diaza-tricyclo[14.3.0.0^4,6]nonadec-7-en-18-yl ester] | < 0.1 µM | < 1 µM | – | –
CC(C)(C)NC(=O)N[C@H]1CCCCC/C=C\[C@@H]2C[C@@]2(C(=O)NS(=O)(=O)C2CC2)NC(=O)[C@@H]2C[C@@H](OC(=O)N3CCc4ccccc4C3)CN2C1=O [AR00320001, (1S,4R,6S,14S,18R)-3,4-Dihydro-1H-isoquinoline-2-carboxylic acid 14-(3-tert-butyl-ureido)-4-cyclopropanesulfonylaminocarbonyl-2,15-dioxo-3,16-diaza-tricyclo[14.3.0.0^4,6]nonadec-7-en-18-yl ester] | < 0.1 µM | < 0.1 µM | – | –
